For this experiment, the target named is hSLC13A5 (Homo sapiens, UniProt Q86YT5). Nature of the experiment: HepG2/14C-citrate uptake assay. It counts as cell-based. Set-up: HepG2 cells endogenously express hSLC13A5 transporter which is responsible for the uptake of citrate into these cells; endogenous in cells; host or cells: HepG2. The note with it: HepG2 cells endogenously expressing hSLC13A5; Cytostar-T; 14C-citrate ~1.8 μM; incubation over night. The text has this: (4) HepG2/^14C-Citrate Uptake Assay
Chain of hSLC13A5 (Q86YT5 whole entry): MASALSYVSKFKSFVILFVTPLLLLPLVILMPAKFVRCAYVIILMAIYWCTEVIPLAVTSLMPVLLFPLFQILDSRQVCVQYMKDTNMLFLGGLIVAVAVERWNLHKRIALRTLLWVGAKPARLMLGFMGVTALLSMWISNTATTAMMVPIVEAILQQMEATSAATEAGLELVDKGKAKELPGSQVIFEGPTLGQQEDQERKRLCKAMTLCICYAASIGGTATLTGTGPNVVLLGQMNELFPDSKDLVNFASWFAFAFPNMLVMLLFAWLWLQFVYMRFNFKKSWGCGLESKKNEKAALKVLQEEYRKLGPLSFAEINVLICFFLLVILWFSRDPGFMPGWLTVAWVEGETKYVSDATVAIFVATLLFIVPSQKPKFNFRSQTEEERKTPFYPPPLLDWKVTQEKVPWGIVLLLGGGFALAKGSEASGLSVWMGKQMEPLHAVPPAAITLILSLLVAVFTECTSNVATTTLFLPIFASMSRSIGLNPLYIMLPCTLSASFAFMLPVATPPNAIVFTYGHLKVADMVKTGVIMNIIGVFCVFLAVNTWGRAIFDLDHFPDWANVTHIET
HepG2 cells endogenously expressing hSLC13A5 were obtained from the Wistar Institute (Knowles et al., Science 1980, 209, 497-499).
HepG2 cells endogenously express hSLC13A5 transporter which is responsible for the uptake of citrate into these cells. […] The uptake of ^14C-citrate into HepG2 cells is monitored using the Cytostar-T assay. This assay format is based on the imported radioactive citrate brought into proximity with the scintillant contained within the base of the plate by virtue of the biological processes within the cells. The radioactive decay is converted to a light signal based on the integration of the scintillation matrix into the assay plate.
Method: ^14C-Citrate Uptake Assay
Starting from 10 mM stock solutions in 100% DMSO, compounds are diluted in pure DMSO using the appropriate dilution steps. Prior to the uptake assay, 400 μL assay medium+4.8 μL compound solution (or pure DMSO for non-inhibited control wells) are mixed (final DMSO concentration in the assay: 1% (v/v)) ^14C-citrate working solution (volumes required per 96-well):
The HepG2 cells are cultivated in cell culture medium (EMEM+10% fetal calf serum+1×NEAA and 10 mM L-Glutamin) For the assay, the medium of the confluent cultures is discarded and the cells are washed with DPBS w/o Mg^2+ w/o Ca^2+. The cells are detached by the addition of 1.0 mL 2× Trypsin in DPBS w/o Mg^2+ w/o Ca^2+ with 7.5 mM EDTA per 75 cm^2 culture flask for up to 3 minutes at 37° C. and resuspended in 10 mL cell culture medium. Following cell counting, 100,000 cells/well are seeded in a volume of 200 μL into Cytostar-T Scintillating 96-well microplates. After overnight incubation in a humid cell culture incubator at 37° C., 5% CO2, the cell culture medium is carefully aspirated and the cells are incubated with 200 μL prewarmed (37° C.) assay medium (50% DMEM+50% Ham's F-12+15 mM HEPES (pH 7.4) (medium contains 15.5 m M D(+)-glucose) per well for at least 1 h prior to the experiment.
Immediately prior to uptake assay, the assay medium is carefully removed and 100 μL test compound dilution is added to each well (n=3).
Following a 20 min incubation at 37° C. in the cell culture incubator, 20 μL of ^14C-citrate working solution is added to each well (final volume per well: 120 μL; final ^14C-citrate concentration ˜1.8 μM/well)).
After incubation over night at 37° C. in the cell culture incubator, the plates are sealed on the top using a transparent plastic foil and on the bottom using a white plastic foil. Following the sealing, the plate is placed into the TopCount NXT HTS and the signal is recorded.
The IC50 values of the compounds are calculated in IDBS XLfit by sigmoidal dose-response (variable slope).
On to `O=C(NCc1ccccc1F)C1CCN(S(=O)(=O)c2cc(Cl)cc(Cl)c2)CC1` [(I-2)], for which the IC50 (commonly the concentration at which inhibition is half-maximal) stood at 35 nM. Then `O=C(NCc1ccc(Cl)cc1)C1CCN(S(=O)(=O)c2cc(Cl)cc(Cl)c2)CC1` [(I-5)], with 22 nM; and `O=C(NCc1ccc(F)cc1)C1CCN(S(=O)(=O)c2cc(Cl)cc(Cl)c2)CC1` [(I-10)], with 24 nM; and `O=C(NCc1ccccn1)C1CCN(S(=O)(=O)c2cc(Cl)cc(Cl)c2)CC1` [(I-11)], with 455 nM.

As for `Cc1ccc(CNC(=O)C2CCN(S(=O)(=O)c3cc(Cl)cc(Cl)c3)CC2)nc1` [(I-15)], the half-maximal inhibitory concentration (IC50) amounted to 152 nM. In the case of `O=C(NCc1ccc(F)cn1)C1CCN(S(=O)(=O)c2cc(Cl)cc(Cl)c2)CC1` [(I-20)] it was 233 nM; in that of `Cc1cnc(CNC(=O)C2CCN(S(=O)(=O)c3cc(Cl)cc(Cl)c3)CC2)s1` [(I-27)], 113 nM; in that of `CCOc1cc(Cl)cc(S(=O)(=O)N2CCC(C(=O)NCc3nccs3)CC2)c1` [(I-49)], 100 nM. Then `Cc1cc(Br)cc(S(=O)(=O)N2CCC(C(=O)NCc3ccccn3)CC2)c1` [(I-61)], with 149 nM. Then `N#Cc1ccc(CNC(=O)C2CCN(S(=O)(=O)c3cc(Cl)cc(Cl)c3)CC2)cc1` [Example (I-1)], with 74 nM.

The values above are taken from US10793522B2, “Sulfonamides as inhibitors of the uptake of extracellular citrate” (Boehringer Ingelheim International GmbH, priority 2016, dated 2020).
